Laboratory results reported in patent US20090022803A1, “Oral Formulations For Delivery of Catecholic Butanes Including Ndga Compounds” (priority 2005, published 2009).

Legend:
[1] = Oral (gavage) repeated dose pharmacokinetic study of M4N in ten excipient formulations; conditions: rat, in vivo, 500 mg/kg
Experimental: The purpose of this study was to provide information on pharmacokinetics of a 500 mg/kg dose of M4N in ten different excipient formulations. […] Crl:(CD)SD male and female rats were assigned to ten dosage groups, five rats per sex per group. Samples were prepared having carriers as follows that were administered to the following groups of subjects:
Each formulation of M4N was administered orally via gavage on three occasions. The concentration of the M4N was 60 mg/mL administered at a dosage volume 8.33 mL/kg, based on the most recent body weight. The rats were given the first dose (day 1 of study) after being fasted overnight followed by a 72 hour washout (recovery) period. On day 5 of study (DS 5), the second dose of test article was administered to non-fasted rats followed by a one week washout (recovery) period. On DS 6, the rats were placed on a high fat diet (approximately 10% fat content versus approximately 5% in a standard diet). […] These observations were also recorded once daily on non dosing days and during the post dosage period. Body weights were recorded at least weekly during the acclimation period, daily during the dosage and at sacrifice terminal weight. Feed consumption values were recorded weekly during the dosage period and at sacrifice (feed left value). […] The time of each blood collection was recorded in the raw data. […]

[2] = M4N stability in HP-β-CD/PEG 300 buffer solutions at 60° C., RP-HPLC and pH; assay type: physicochemical; conditions: for M4N stability: M4N: 25% PEG300
Experimental: The stability of 10 mg/mL M4N (prepared in a ratio of 75:25 40% HP-β-CD: 40 mg/mL M4N PEG 300) in 15 mM buffer solutions was evaluated following incubation at 60° C.
2.0 g HP-β-CD was weighed into 5 mL volumetric flasks on an OHAUS Analytical Plus Balance. 1 mL of a 100 mM buffer solution was added to each flask. Each sample was q.s. to 5 mL with WFI.
750 μL 40% HP-β-CD buffered solution was placed in 1.5 mL polypropylene microtubes. […] After gentle inversion of the sample tubes, the pH of each solution was measured using a Orion, Model 420A pH meter. An initial aliquot was removed for RP-HPLC analysis. Test samples were then placed in a Precision 60° C. incubator. The M4N stability was evaluated by RP-HPLC. At each time point, the samples were centrifuged for 2 minutes at 13,000 rpm to pellet any solid M4N.

COc1ccc(C[C@@H](C)[C@@H](C)Cc2ccc(OC)c(OC)c2)cc1OC [Formulation M4N, meso-1,4-bis(3,4-dimethoxyphenyl)-2,3-dimethylbutane]
9.7 mg/mL: M4N stability: M4N ([2]; 15 mM Acetate, pH 5 30% HP-β-CD, 60° C., 10 days) | M4N stability: M4N ([2]; 15 mM Acetate, pH 6 30% HP-β-CD, 60° C., 6 days) | M4N stability: M4N ([2]; 15 mM Acetate, pH 6 30% HP-β-CD, 60° C., 10 days) | M4N stability: M4N ([2]; 15 mM Borate, pH 10 30% HP-β-CD, 60° C., 6 days) | M4N stability: M4N ([2]; 15 mM Phosphate, pH 3 30% HP-β-CD, 60° C., 10 days) | M4N stability: M4N ([2]; 15 mM Phosphate, pH 4 30% HP-β-CD, 60° C., 10 days) | M4N stability: M4N ([2]; 15 mM Phosphate, pH 7 30% HP-β-CD, 60° C., 6 days) | M4N stability: M4N ([2]; 15 mM Phosphate, pH 7 30% HP-β-CD, 60° C., 10 days) | M4N stability: M4N ([2]; 15 mM Phosphate, pH 7 30% HP-β-CD, 60° C., 14 days) | M4N stability: M4N ([2]; 15 mM Phosphate, pH 8 30% HP-β-CD, 60° C., 6 days) | M4N stability: M4N ([2]; 15 mM Phosphate, pH 9 30% HP-β-CD, 60° C., 6 days) | M4N stability: M4N ([2]; 15 mM Phosphate, pH 9 30% HP-β-CD, 60° C., 14 days) | M4N stability: M4N ([2]; WFI, 30% HP-β-CD, 60° C., 10 days)
9.9 mg/mL: M4N stability: M4N ([2]; WFI, 30% HP-β-CD, 60° C., 6 days)
10.3 mg/mL: M4N stability: M4N ([2]; 15 mM Borate, pH 11 30% HP-β-CD, 60° C., 2 days) | M4N stability: M4N ([2]; 15 mM Phosphate, pH 3 30% HP-β-CD, 60° C., 0 days) | M4N stability: M4N ([2]; 15 mM Phosphate, pH 7 30% HP-β-CD, 60° C., 2 days)
10.2 mg/mL: M4N stability: M4N ([2]; 15 mM Acetate, pH 5 30% HP-β-CD, 60° C., 2 days) | M4N stability: M4N ([2]; 15 mM Phosphate, pH 9 30% HP-β-CD, 60° C., 2 days)
9.5 mg/mL: M4N stability: M4N ([2]; 15 mM Borate, pH 11 30% HP-β-CD, 60° C., 10 days)
9.4 mg/mL: M4N stability: M4N ([2]; 15 mM Borate, pH 11 30% HP-β-CD, 60° C., 14 days)
10.6 mg/mL: M4N stability: M4N ([2]; 15 mM Acetate, pH 5 30% HP-β-CD, 60° C., 0 days) | M4N stability: M4N ([2]; 15 mM Phosphate, pH 8 30% HP-β-CD, 60° C., 0 days)
always higher: Blood levels on high fat diet versus standard diet or fasting [1]
10.1 mg/mL: M4N stability: M4N ([2]; 15 mM Acetate, pH 6 30% HP-β-CD, 60° C., 2 days) | M4N stability: M4N ([2]; 15 mM Borate, pH 10 30% HP-β-CD, 60° C., 2 days) | M4N stability: M4N ([2]; 15 mM Phosphate, pH 3 30% HP-β-CD, 60° C., 2 days) | M4N stability: M4N ([2]; 15 mM Phosphate, pH 4 30% HP-β-CD, 60° C., 2 days)
Little if any changes: change in apparent sample pH ([2]; incubation at 60° C. up to 14 days)
10.4 mg/mL: M4N stability: M4N ([2]; 15 mM Phosphate, pH 8 30% HP-β-CD, 60° C., 2 days) | M4N stability: M4N ([2]; 15 mM Phosphate, pH 9 30% HP-β-CD, 60° C., 0 days) | M4N stability: M4N ([2]; WFI, 30% HP-β-CD, 60° C., 0 days)
9.6 mg/mL: M4N stability: M4N ([2]; 15 mM Acetate, pH 5 30% HP-β-CD, 60° C., 6 days) | M4N stability: M4N ([2]; 15 mM Acetate, pH 5 30% HP-β-CD, 60° C., 14 days) | M4N stability: M4N ([2]; 15 mM Acetate, pH 6 30% HP-β-CD, 60° C., 14 days) | M4N stability: M4N ([2]; 15 mM Borate, pH 10 30% HP-β-CD, 60° C., 10 days) | M4N stability: M4N ([2]; 15 mM Borate, pH 10 30% HP-β-CD, 60° C., 14 days) | M4N stability: M4N ([2]; 15 mM Phosphate, pH 3 30% HP-β-CD, 60° C., 6 days) | M4N stability: M4N ([2]; 15 mM Phosphate, pH 3 30% HP-β-CD, 60° C., 14 days) | M4N stability: M4N ([2]; 15 mM Phosphate, pH 4 30% HP-β-CD, 60° C., 6 days) | M4N stability: M4N ([2]; 15 mM Phosphate, pH 4 30% HP-β-CD, 60° C., 14 days) | M4N stability: M4N ([2]; 15 mM Phosphate, pH 8 30% HP-β-CD, 60° C., 14 days) | M4N stability: M4N ([2]; WFI, 30% HP-β-CD, 60° C., 14 days)
9.8 mg/mL: M4N stability: M4N ([2]; 15 mM Borate, pH 11 30% HP-β-CD, 60° C., 6 days) | M4N stability: M4N ([2]; 15 mM Phosphate, pH 8 30% HP-β-CD, 60° C., 10 days) | M4N stability: M4N ([2]; 15 mM Phosphate, pH 9 30% HP-β-CD, 60° C., 10 days)
slight decrease: change in M4N concentration ([2]; 10 mg/mL M4N in HP-β-CD/PEG 300 buffer solutions, 14 day incubation at 60° C.)
less than 0.1%: M4N impurities, share of the total peak area ([2]; HP-β-CD/PEG 300 buffer solutions, 60° C.)
10.5 mg/mL: M4N stability: M4N ([2]; 15 mM Acetate, pH 6 30% HP-β-CD, 60° C., 0 days) | M4N stability: M4N ([2]; 15 mM Borate, pH 10 30% HP-β-CD, 60° C., 0 days) | M4N stability: M4N ([2]; 15 mM Borate, pH 11 30% HP-β-CD, 60° C., 0 days) | M4N stability: M4N ([2]; 15 mM Phosphate, pH 4 30% HP-β-CD, 60° C., 0 days) | M4N stability: M4N ([2]; 15 mM Phosphate, pH 7 30% HP-β-CD, 60° C., 0 days)
